Columns and labels:
Assay in all cases: Post-Emergent Test II herbicidal activity
Assay type in all cases: in vivo
[1] = tested on: EPHHL: wild poinsettia (Euphorbia heterophylla); conditions: post-emergence, 336 h, 14 days, read-out: Visual Growth Reduction (%) 14 Days After Application EPHHL; for pest or weed control at 35 g/ha: 35 g ai/ha; for pest or weed control at 70 g/ha: 70 g ai/ha; for pest or weed control at 140 g/ha: 140 g ai/ha
Protocol: (§1) Post-Emergent Test II: Seeds or nutlets of the desired test plant species were planted in Sun Gro Metro-Mix® 360 planting mixture, which typically has a pH of 6.0 to 6.8 and an organic matter content of about 30 percent, in plastic pots with a surface area of 64 square centimeters. When required to ensure good germination and healthy plants, a fungicide treatment and/or other chemical or physical treatment was applied. The plants were grown for 7-21 d in a greenhouse with an approximate 15 h photoperiod which was maintained at about 23-29° C. during the day and 22-28° C. during the night. Nutrients and water were added on a regular basis and supplemental lighting was provided with overhead metal halide 1000-Watt lamps as necessary. The plants were employed for testing when they reached the first or second true leaf stage.
(§2) A weighed amount, determined by the highest rate to be tested, of each test compound was placed in a 25 mL glass vial and was dissolved in 4 mL of a 97:3 v/v mixture of acetone and DMSO to obtain concentrated stock solutions. […] The concentrated stock solutions obtained were diluted with 20 mL of an aqueous mixture containing acetone, water, isopropyl alcohol, DMSO, Atplus 411F crop oil concentrate, and Triton® X-155 surfactant in a 48.5:39:10:1.5:1.0:0.02 v/v ratio to obtain spray solutions containing the highest application rates. Additional application rates were obtained by serial dilution of 12 mL of the high rate solution into a solution containing 2 mL of 97:3 v/v mixture of acetone and DMSO and 10 mL of an aqueous mixture containing acetone, water, isopropyl alcohol, DMSO, Atplus 411F crop oil concentrate, and Triton X®-155 surfactant in a 48.5:39:10:1.5:1.0:0.02 v/v ratio to obtain ½×, ¼×, ⅛× and 1/16× rates of the high rate. Compound requirements are based upon a 12 mL application volume at a rate of 187 liters per hectare (L/ha). Formulated compounds were applied to the plant material with an overhead Mandel track sprayer equipped with 8002E nozzles calibrated to deliver 187 L/ha over an application area of 0.503 square meters at a spray height of 18 inches […] above the average plant canopy height. Control plants were sprayed in the same manner with the solvent blank.
(§3) The treated plants and control plants were placed in a greenhouse as described above and watered by subirrigation to prevent wash-off of the test compounds. After 14 d, the condition of the test plants as compared with that of the untreated plants was determined visually and scored on a scale of 0 to 100 percent where 0 corresponds to no injury and 100 corresponds to complete kill.

[2] = tested on: CHEAL: lambsquarters (Chenopodium album); conditions: post-emergence, 336 h, 14 days, read-out: Visual Growth Reduction (%) 14 Days After Application CHEAL; for pest or weed control at 35 g/ha: 35 g ai/ha; for pest or weed control at 70 g/ha: 70 g ai/ha; for pest or weed control at 140 g/ha: 140 g ai/ha
Protocol: as §1, §2, §3

[3] = tested on: ABUTH: velvetleaf (Abutilon theophrasti); conditions: post-emergence, 336 h, 14 days, read-out: Visual Growth Reduction (%) 14 Days After Application ABUTH; for pest or weed control at 35 g/ha: 35 g ai/ha; for pest or weed control at 70 g/ha: 70 g ai/ha; for pest or weed control at 140 g/ha: 140 g ai/ha
Protocol: as §1, §2, §3

[4] = tested on: CYPES: yellow nutsedge (Cyperus esculentus); conditions: post-emergence, 336 h, 14 days, read-out: Visual Growth Reduction (%) 14 Days After Application CYPES; for pest or weed control at 35 g/ha: 35 g ai/ha; for pest or weed control at 70 g/ha: 70 g ai/ha; for pest or weed control at 140 g/ha: 140 g ai/ha
Protocol: as §1, §2, §3

[5] = tested on: TRZAS: wheat, spring (Triticum aestivum); conditions: post-emergence, 336 h, 14 days, read-out: Visual Growth Reduction (%) 14 Days After Application TRZAS; for pest or weed control at 35 g/ha: 35 g ai/ha; for pest or weed control at 70 g/ha: 70 g ai/ha; for pest or weed control at 140 g/ha: 140 g ai/ha
Protocol: as §1, §2, §3

[6] = tested on: BRSNN: oilseed rape, canola (Brassica napus); conditions: post-emergence, 336 h, 14 days, read-out: Visual Growth Reduction (%) 14 Days After Application BRSNN; for pest or weed control at 35 g/ha: 35 g ai/ha; for pest or weed control at 70 g/ha: 70 g ai/ha; for pest or weed control at 140 g/ha: 140 g ai/ha
Protocol: as §1, §2, §3

[7] = tested on: ORYSA: rice (Oryza sativa); conditions: post-emergence, 336 h, 14 days, read-out: Visual Growth Reduction (%) 14 Days After Application ORYSA; for pest or weed control at 35 g/ha: 35 g ai/ha; for pest or weed control at 70 g/ha: 70 g ai/ha; for pest or weed control at 140 g/ha: 140 g ai/ha
Protocol: as §1, §2, §3

[8] = tested on: SETFA: giant foxtail (Setaria faberi); conditions: post-emergence, 336 h, 14 days, read-out: Visual Growth Reduction (%) 14 Days After Application SETFA; for pest or weed control at 35 g/ha: 35 g ai/ha; for pest or weed control at 70 g/ha: 70 g ai/ha; for pest or weed control at 140 g/ha: 140 g ai/ha
Protocol: as §1, §2, §3

[9] = tested on: ECHCG: barnyardgrass (Echinochloa crus-galli); conditions: post-emergence, 336 h, 14 days, read-out: Visual Growth Reduction (%) 14 Days After Application ECHCG; for pest or weed control at 35 g/ha: 35 g ai/ha; for pest or weed control at 70 g/ha: 70 g ai/ha; for pest or weed control at 140 g/ha: 140 g ai/ha
Protocol: as §1, §2, §3

[10] = tested on: HELAN: sunflower (Helianthus annuus); conditions: post-emergence, 336 h, 14 days, read-out: Visual Growth Reduction (%) 14 Days After Application HELAN; for pest or weed control at 35 g/ha: 35 g ai/ha; for pest or weed control at 70 g/ha: 70 g ai/ha
Protocol: as §1, §2, §3

[11] = tested on: ZEAMX: maize, corn (Zea mays); conditions: post-emergence, 336 h, 14 days, read-out: Visual Growth Reduction (%) 14 Days After Application ZEAMX; for pest or weed control at 35 g/ha: 35 g ai/ha; for pest or weed control at 70 g/ha: 70 g ai/ha; for pest or weed control at 140 g/ha: 140 g ai/ha
Protocol: as §1, §2, §3

[12] = tested on: AMARE: redroot pigweed (Amaranthus retroflexus); conditions: post-emergence, 336 h, 14 days, read-out: Visual Growth Reduction (%) 14 Days After Application AMARE
Protocol: as §1, §2, §3

Structure (SMILES)	pest or weed control at 35 g/ha [1]	pest or weed control at 70 g/ha [1]	pest or weed control at 140 g/ha [1]	pest or weed control at 35 g/ha [2]	pest or weed control at 70 g/ha [2]	pest or weed control at 140 g/ha [2]	pest or weed control at 35 g/ha [3]	pest or weed control at 70 g/ha [3]	pest or weed control at 140 g/ha [3]	pest or weed control at 35 g/ha [4]	pest or weed control at 70 g/ha [4]	pest or weed control at 140 g/ha [4]	pest or weed control at 35 g/ha [5]	pest or weed control at 70 g/ha [5]	pest or weed control at 140 g/ha [5]	pest or weed control at 35 g/ha [6]	pest or weed control at 70 g/ha [6]	pest or weed control at 140 g/ha [6]	pest or weed control at 35 g/ha [7]	pest or weed control at 70 g/ha [7]	also measured
COC(=O)c1nc(-c2cc3nonc3cc2F)nc(N)c1OC [Compound 10, Methyl 6-amino-2-(6-fluorobenzo[c][1,2,5]oxadiazol-5-yl)-5-methoxypyrimidine-4-carboxylate]	45 to 59%	60 to 74%	75 to 84%	0 to 29%	0 to 29%	0 to 29%	0 to 29%	0 to 29%	0 to 29%	0 to 29%	0 to 29%	0 to 29%	0 to 29%	0 to 29%	0 to 29%	60 to 74%	75 to 84%	75 to 84%	0 to 29%	0 to 29%	pest or weed control at 140 g/ha [7]: 0 to 29%; pest or weed control at 35 g/ha [8]: 0 to 29%; pest or weed control at 70 g/ha [8]: 0 to 29%; pest or weed control at 140 g/ha [8]: 0 to 29%; pest or weed control at 35 g/ha [9]: 0 to 29%; pest or weed control at 70 g/ha [9]: 0 to 29%; pest or weed control at 140 g/ha [9]: 0 to 29%; pest or weed control at 35 g/ha [10]: 0 to 29%; pest or weed control at 70 g/ha [10]: 0 to 29%; pest or weed control at 35 g/ha [11]: 0 to 29%; pest or weed control at 70 g/ha [11]: 0 to 29%; pest or weed control at 140 g/ha [11]: 0 to 29%
Nc1c(F)c(-c2ccc3nsnc3c2)nc(C(=O)O)c1Cl [Compound 12]	95 to 100%	95 to 100%	95 to 100%	85 to 94%	95 to 100%	95 to 100%	85 to 94%	85 to 94%	85 to 94%	0 to 29%	0 to 29%	0 to 29%	0 to 29%	0 to 29%	0 to 29%	75 to 84%	75 to 84%	75 to 84%	0 to 29%	0 to 29%	pest or weed control at 35 g/ha ([12]; 35 g ai/ha): 95 to 100%; pest or weed control at 70 g/ha ([12]; 70 g ai/ha): 95 to 100%; pest or weed control at 140 g/ha ([12]; 140 g ai/ha): 95 to 100%; pest or weed control at 140 g/ha [7]: 0 to 29%; pest or weed control at 35 g/ha [8]: 0 to 29%; pest or weed control at 70 g/ha [8]: 0 to 29%; pest or weed control at 140 g/ha [8]: 75 to 84%; pest or weed control at 35 g/ha [9]: 75 to 84%; pest or weed control at 70 g/ha [9]: 75 to 84%; pest or weed control at 140 g/ha [9]: 85 to 94%; pest or weed control at 35 g/ha [10]: 95 to 100%; pest or weed control at 70 g/ha [10]: 95 to 100%; pest or weed control at 140 g/ha ([10]; 140 g ai/ha): 95 to 100%; pest or weed control at 35 g/ha [11]: 60 to 74%; pest or weed control at 70 g/ha [11]: 60 to 74%; pest or weed control at 140 g/ha [11]: 75 to 84%
